Each structure is given as a SMILES string.

One data set has as its system CYP72A1 P450. As to the kind of experiment: Metabolism of pesticide substrates by the CYP72A1 P450 expressed with a reductase (yeast microsomes, [14C]-labeled substrates, HPLC). In kind it is in vitro ADME, Zea mays (maize). The note with it: expressed in the presence of a reductase; chromatographs FIGS. 8-11. An excerpt: Both genes (CYP72A1 and CYP92A1), obtained as described in Example 1, were introduced into pYeDP60 vector for yeast expression. CYP72A1 was introduced as a full length gene with in-frame Met 1 and 8 as the start codons, while CYP92A1 was modified for the expression.
Expression strategies include using both full length or truncated (Met 8 start site) CYP72A1 cDNA in yeast strains WAT11, WAT21 W (R) from Philippe Urban and Denis Pompon, with, optionally, yeast vector pYeDP60. Expression is ideally achieved with full length cDNA and WAT11. Expression may also require 36 hours rather than 24 hours of galactose induction prior to microsome preparation. Glucose (SGI) or galactose (SLI) media prior to induction will give expression.
Metabolism experiments can be accomplished using microsomes prepared from yeast cells. The substrates can be incubated with [^14C]-labeled substrates and products analyzed by HPLC.

Data set [1] relates to multiple pesticide metabolizing P450 in corn. The note with it: FIG. 13, cited from earlier work.
A further data set relates to soybean P450. Particulars: cited from earlier work.
A further data set has as its target T1, CYP73A1 (Helianthus tuberosus, UniProt Q04468).
T1 sequence (Q04468 1-505): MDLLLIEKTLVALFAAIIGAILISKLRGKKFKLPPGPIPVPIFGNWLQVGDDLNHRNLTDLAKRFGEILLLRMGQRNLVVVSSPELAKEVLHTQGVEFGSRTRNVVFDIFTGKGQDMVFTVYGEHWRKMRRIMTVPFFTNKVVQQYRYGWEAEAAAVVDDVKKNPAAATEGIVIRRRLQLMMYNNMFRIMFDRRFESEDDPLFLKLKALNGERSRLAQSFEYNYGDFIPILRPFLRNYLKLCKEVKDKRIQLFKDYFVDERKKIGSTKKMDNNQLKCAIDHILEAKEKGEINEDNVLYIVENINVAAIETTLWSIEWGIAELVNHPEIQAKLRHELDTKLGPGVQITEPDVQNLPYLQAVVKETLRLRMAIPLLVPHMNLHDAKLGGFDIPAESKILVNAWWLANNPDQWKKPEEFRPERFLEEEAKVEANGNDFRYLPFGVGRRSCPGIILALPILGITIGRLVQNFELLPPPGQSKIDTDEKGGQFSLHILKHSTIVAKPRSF
Particulars: cited from earlier work.

The next data set concerns corn line GA209. The note with it: FIG. 12, thesis of Laura Boldt; cited from earlier work.
The subject of the next data set is CYP92A1. The data set can be described thus: Induction of CYP92A1 expression by NA-treatment (Northern blot, maize seedlings). Format: in vivo. Particulars: FIG. 5. The method, then: (§1) A maize cDNA library was constructed from napthalic anhydride (NA)-treated Pioneer 3343IR 3.5-day-old seedlings using lambda-ZAPII vector kit (Stratagene).
(§2) Northern blot analysis was performed with total RNA isolated from control and […] and hybridized under high stringency conditions. To estimate the copy number, Southern blot analysis was performed using genomic DNA from 3343IR maize which was digested with SacI EcoRV, EcoRI, HindIII, and BamHI. The analysis was carried out under high stringency (65 degrees Celsius in 0.1×SSC and 0.1% SDS).
(§3) Based on the results of the genomic Southern blot analysis, the hybridization patterns were consistent with those predicted from the restriction patterns of the corresponding cDNAs. […] Certain physico-chemical characteristics for the deduced proteins, antigenicity and secondary structure were calculated using Network Protein Sequence Analysis at IBCP, France.

A further data set relates to CYP72A1. The data set can be described thus: Induction of CYP72A1 expression by NA-treatment (Northern blot, maize seedlings). Format: in vivo. Particulars: FIG. 5. The protocol: as §1, §2, §3

With `COc1cc(Cl)nc(NC(=O)NS(=O)(=O)c2ccccc2C(=O)O)n1` [chlorimuron], the “metabolism of the substrate by the CYP72A1 P450” value (“metabolism of the substrate” below) in the data set with CYP72A1 P450 is recorded as “shown to metabolize”.

Consider `CCOP(=S)(OCC)SCS(=O)(=O)C(C)(C)C` [terbufos-sulfone], for which the “inhibition of in-vitro metabolism of bentazon” value in data set [1] (substrate bentazon) was “inhibited”. In addition, the “inhibition of in-vitro metabolism of chlorimuron” value in data set [1] (substrate chlorimuron) is reported as “inhibited”. Also, in data set [1] (substrate imazethapyr), the “inhibition of in-vitro metabolism of imazethapyr” value is “inhibited”. Further, in data set [1] (substrate malathion), the “inhibition of in-vitro metabolism of malathion” value was “inhibited”. The “inhibition of in-vitro metabolism of nicosulfuron” value in data set [1] (substrate nicosulfuron) is recorded as “inhibited”. `Cc1ccc(NC(=O)N(C)C)cc1Cl` [chlortoluron]: the “metabolism by a soybean P450” value in the data set on soybean P450 is on record as “shown to metabolize”. Further, the “metabolism of the substrate” value in the data set on CYP72A1 P450 is recorded as “shown to metabolize”. Further, the “metabolism by CYP73A1” value on CYP73A1 was “shown to metabolize”. As to `CCc1cccc(CC)c1N(COC)C(=O)CCl` [alachlor], the “metabolism of the substrate” value with CYP72A1 P450 was “Unmetabolized”. Turning to `O=C(Nc1nc(OC(F)F)cc(OC(F)F)n1)NS(=O)(=O)c1ccccc1C(=O)O` [primisulfuron], the “sensitivity of corn line GA209 to the herbicide” value (shortened to “sensitivity of corn line GA209”) in the data set on corn line GA209 is given as “sensitive”. For the compound `O=C(O)COc1ccc(Cl)cc1Cl` [2,4-D], the “metabolism of the substrate” value in the data set with CYP72A1 P450 is “Unmetabolized”. For `CCc1cnc(C2=NC(C)(C(C)C)C(=O)N2)c(C(=O)O)c1` (stereo not drawn) [imazethapyr], the “sensitivity of corn line GA209” value with corn line GA209 is “sensitive”.

Consider `COc1cc(OC)nc(NC(=O)NS(=O)(=O)c2ncccc2C(=O)N(C)C)n1` [nicosulfuron], for which, in the data set with corn line GA209, the “sensitivity of corn line GA209” value is given as “sensitive”. As to `CC(C)N1C(=O)c2ccccc2NS1(=O)=O` [bentazon], the “metabolism of the substrate” value in the data set with CYP72A1 P450 is given as “shown to metabolize”. Also, in the data set on corn line GA209, the “sensitivity of corn line GA209” value is “sensitive”.

Regarding `CCOC(=O)CC(SP(=S)(OC)OC)C(=O)OCC` (stereo not drawn) [malathion], in the data set on CYP72A1 P450, the “metabolism of the substrate” value is reported as “shown to metabolize”. Consider `CON(C)C(=O)Nc1ccc(Cl)c(Cl)c1` [linuron], for which, in the data set with soybean P450, the “metabolism by a soybean P450” value is listed as “shown to metabolize”. Further, the “metabolism of the substrate” value in the data set with CYP72A1 P450 is recorded as “Unmetabolized”. Take `O=C1OC(=O)c2cccc3cccc1c23` [NA, napthalic anhydride]: the “induction of CYP92A1 expression” value with CYP92A1 was “induced significantly less”. In addition, the “induction of CYP72A1 expression” value in the data set with CYP72A1 was “highly induced”.

These data come from patent US6380465B1, “Cytochrome P450 enzymes and related compounds and methods” (University of Kentucky Research Foundation, priority 1998, dated 2002).
